Key:
[1] = Plasma miglustat pharmacokinetics, phase 1/2 study in adults with Pompe disease; assay type: in vivo, human; details: for CL/F: arithmetic mean (CV %)
Method: Mean total GAA protein and miglustat PK results from the first 8 Cohort 1 patients through Visit 9 and the first 2 Cohort 3 patients were assessed.

[2] = test system: normal and Pompe fibroblast cell lines; test: Cellular uptake of rhGAA in normal and Pompe fibroblast cell lines; assay type: cell-based
Method: The relative cellular uptake of ATB200 and Lumizyme® rhGAA were compared using normal and Pompe fibroblast cell lines. […] After 16-hr incubation, external rhGAA was inactivated with TRIS base and cells were washed 3-times with PBS prior to harvest. Internalized GAA measured by 4MU-α-Glucoside hydrolysis and was graphed relative to total cellular protein and the results appear in FIGS. 11A-B.

CIMPR = CIMPR (Homo sapiens, UniProt P11717); test: CIMPR affinity chromatography (CIMPR column, free M6P gradient); assay type: binding; details: fraction of total enzyme by GAA activity; for rhGAA that did not bind to the CIMPR: eluted prior to addition of M6P
Method: To evaluate the ability of the rhGAA in Myozyme® and Lumizyme®, the only currently approved treatments for Pompe disease, these rhGAA preparations were injected onto a CIMPR column (which binds rhGAA having M6P groups) and subsequently eluted with a free […] gradient. Fractions were collected in 96-well plate and GAA activity assayed by 4MU-α-glucose substrate. The relative amounts of bound and unbound rhGAA were determined based on GAA activity and reported as the fraction of total enzyme.

Gaa KO mice = test: Muscle function in Gaa-knockout mice, 12 biweekly administrations (grip strength, wire hang); assay type: in vivo, mouse; details: 12 biweekly administrations, ERT 20 mg/kg (miglustat 10 mg/kg)
Source text: In FIG. 18A, * indicates statistically significant compared to Lumizyme® alone (p<0.05, 2-sided t-test). In FIGS. 19A-19G, * indicates statistically significant compared to Lumizyme® alone (p<0.05, multiple comparison using Dunnett's method under one-way ANOVA analysis).

[3] = Apparent plasma half-life in vivo

CIMPR, sequence (P11717 41-2491, species assumed): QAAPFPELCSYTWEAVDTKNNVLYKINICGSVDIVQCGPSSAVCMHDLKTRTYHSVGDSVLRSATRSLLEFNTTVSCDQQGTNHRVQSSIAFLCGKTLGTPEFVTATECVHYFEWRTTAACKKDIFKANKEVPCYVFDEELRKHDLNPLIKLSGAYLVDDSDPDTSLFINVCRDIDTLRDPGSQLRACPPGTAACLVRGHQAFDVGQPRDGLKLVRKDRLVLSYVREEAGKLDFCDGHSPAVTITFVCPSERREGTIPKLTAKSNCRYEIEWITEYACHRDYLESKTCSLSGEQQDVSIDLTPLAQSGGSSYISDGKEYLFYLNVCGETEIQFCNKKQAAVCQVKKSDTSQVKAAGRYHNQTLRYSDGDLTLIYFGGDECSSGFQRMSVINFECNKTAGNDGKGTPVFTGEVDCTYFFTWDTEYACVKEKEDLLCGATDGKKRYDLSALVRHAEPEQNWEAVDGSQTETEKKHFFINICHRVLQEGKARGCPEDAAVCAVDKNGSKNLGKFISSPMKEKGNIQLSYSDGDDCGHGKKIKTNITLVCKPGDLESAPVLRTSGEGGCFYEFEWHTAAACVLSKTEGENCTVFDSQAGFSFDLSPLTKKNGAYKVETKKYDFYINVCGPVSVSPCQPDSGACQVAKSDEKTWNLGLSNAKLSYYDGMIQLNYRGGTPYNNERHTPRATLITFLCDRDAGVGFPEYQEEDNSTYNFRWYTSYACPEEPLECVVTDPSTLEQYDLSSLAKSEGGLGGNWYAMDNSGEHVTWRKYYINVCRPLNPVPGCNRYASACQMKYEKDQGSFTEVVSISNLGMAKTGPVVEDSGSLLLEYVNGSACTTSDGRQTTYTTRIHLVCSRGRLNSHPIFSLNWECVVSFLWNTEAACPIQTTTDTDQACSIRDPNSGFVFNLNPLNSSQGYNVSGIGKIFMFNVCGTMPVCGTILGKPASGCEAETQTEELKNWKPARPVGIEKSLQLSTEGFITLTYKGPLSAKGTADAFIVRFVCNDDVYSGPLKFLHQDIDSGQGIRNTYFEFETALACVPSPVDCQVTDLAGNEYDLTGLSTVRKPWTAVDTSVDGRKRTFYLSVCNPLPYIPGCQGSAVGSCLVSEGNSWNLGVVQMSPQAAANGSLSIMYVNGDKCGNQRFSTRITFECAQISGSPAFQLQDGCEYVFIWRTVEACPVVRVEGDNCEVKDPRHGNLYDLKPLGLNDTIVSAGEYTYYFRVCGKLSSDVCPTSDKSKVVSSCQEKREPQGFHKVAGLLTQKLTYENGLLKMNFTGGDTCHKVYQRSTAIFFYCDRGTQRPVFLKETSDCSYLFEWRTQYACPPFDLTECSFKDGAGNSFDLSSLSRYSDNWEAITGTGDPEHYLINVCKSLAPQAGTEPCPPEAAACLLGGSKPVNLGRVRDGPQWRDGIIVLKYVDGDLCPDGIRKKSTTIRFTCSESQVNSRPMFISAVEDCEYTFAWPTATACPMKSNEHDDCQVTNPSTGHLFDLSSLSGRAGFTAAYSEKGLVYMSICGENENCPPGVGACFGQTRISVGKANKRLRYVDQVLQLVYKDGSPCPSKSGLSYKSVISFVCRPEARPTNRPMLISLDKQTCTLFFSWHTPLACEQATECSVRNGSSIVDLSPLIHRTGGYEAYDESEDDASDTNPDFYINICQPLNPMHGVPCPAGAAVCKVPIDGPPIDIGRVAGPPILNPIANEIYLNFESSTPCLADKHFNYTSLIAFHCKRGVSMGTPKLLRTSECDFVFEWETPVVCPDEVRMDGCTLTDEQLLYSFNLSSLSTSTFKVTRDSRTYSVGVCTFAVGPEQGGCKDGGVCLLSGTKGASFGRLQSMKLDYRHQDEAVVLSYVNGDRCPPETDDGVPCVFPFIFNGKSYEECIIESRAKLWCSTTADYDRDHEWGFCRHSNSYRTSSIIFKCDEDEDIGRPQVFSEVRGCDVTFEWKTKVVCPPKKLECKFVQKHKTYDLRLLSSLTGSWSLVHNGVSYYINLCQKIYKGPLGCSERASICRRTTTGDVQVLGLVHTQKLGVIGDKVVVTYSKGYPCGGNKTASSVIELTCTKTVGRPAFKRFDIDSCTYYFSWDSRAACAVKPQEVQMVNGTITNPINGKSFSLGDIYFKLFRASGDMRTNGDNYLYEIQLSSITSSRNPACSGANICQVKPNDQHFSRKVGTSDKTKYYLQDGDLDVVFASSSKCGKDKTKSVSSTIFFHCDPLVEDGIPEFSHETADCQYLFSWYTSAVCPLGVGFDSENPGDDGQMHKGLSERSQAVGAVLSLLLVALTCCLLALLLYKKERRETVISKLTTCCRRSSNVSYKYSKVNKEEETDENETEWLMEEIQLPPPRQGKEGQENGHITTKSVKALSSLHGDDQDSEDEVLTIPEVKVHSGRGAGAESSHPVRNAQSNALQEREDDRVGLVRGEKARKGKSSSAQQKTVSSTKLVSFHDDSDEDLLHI

CCCCN1C[C@H](O)[C@@H](O)[C@H](O)[C@H]1CO [Miglustat, miglustat]
plasma miglustat kinetics ([1]; 130 mg and 260 mg oral): dose-proportional kinetics | CL/F ([1]; High MD): 10.3 (26.4) L/h | CL/F ([1]; High SD): 10.6 (33) L/h | CL/F ([1]; Low MD): 10.2 (23.9) L/h | CL/F ([1]; Low SD): 10.6 (23) L/h

Lumizyme®: conventional rhGAA product containing alglucosidase alfa, Genzyme
concentration that saturates cellular receptors ([2]; 16-hr incubation): about 250 nM | uptake efficiency constant (Kuptake) ([2]; extrapolated, FIG. 11C): 56 nM | rhGAA that contained M6P / bound CIMPR (eluted with M6P) (CIMPR): 22% | rhGAA that did not bind to the CIMPR (CIMPR): 78% | functional muscle strength (grip strength and wire hang tests) (Gaa KO mice): observed to decline under identical conditions throughout most of the study

Myozyme®: conventional rhGAA product containing alglucosidase alfa, Genzyme
rhGAA that contained M6P / bound CIMPR (eluted with M6P) (CIMPR): 27% | rhGAA that did not bind to the CIMPR (CIMPR): 73%

[199-arginine,223-histidine]prepro-α-glucosidase (human) [alglucosidase alfa, reference compound]
apparent plasma half-life (t1/2) [3]: ~1 h
